The values that follow come from patent publication US5709816A, “Singlet oxygen quenchers and external compositions containing the same” (Kao Corporation, priority 1899, dated 1998).

For assay [1], the system named is skin of colored guinea pigs. Put plainly: Inhibition of delayed darkening (UV-A/UV-B irradiation). To be noted: 7 wt. % in ethanol; UV-A/UV-B 50 J/cm^2; 14 days after irradiation; color difference meter. In kind it is in vivo. The protocol:
Inhibition of delayed darkening
The hair of colored guinea pigs (8 week old, female) hair was removed, and an ethanol solution containing a test substance (7 wt. %) was applied to the skin. A mixture of UV- A/UV-B rays (50 J/cm^2, measured at 365 nm using a UV-radiometer UVR-305/365-D, Torex Co.) was irradiated onto the back of each guinea pig using a solar simulator. Fourteen days after irradiation, delayed darkening inhibition ratios were measured using a color difference meter (Model 1001P. Nippon Kogyo Co., Ltd.).

For assay [2], the system named is sunburn cells in skin of ICR/HR mice. Briefly: Inhibition of sunburn cell formation (UV-B irradiation). In kind it is in vivo. To be noted: 1 wt. % in ethanol, UV-B 100 mJ/cm^2, 24 hours later; for inhibition in vivo at 1 %: Mus musculus, light or radiation study, topical, read-out: Inhibition ratio regarding sunburn cell formation. The source says:
Inhibition of sunburn cell formation
Ethanol solution of a test substance (1 wt. %) was applied onto the skin of ICR/HR mice. UV-B (100 mJ/cm^2) was irradiated onto the skin (health lamp SE20/SLE, Toshiba). Twenty-four hours later, the skin was biopsied and stained using hematoxylin & eosin, after which the number of sunburn cells were counted under microscope.

Assay [3] relates to skin of white guinea pigs. Briefly: Inhibition of erythema formation (UV-A/UV-B irradiation). In kind it is in vivo. To be noted: Cavia porcellus, light or radiation study, topical; 5 wt. % in ethanol; UV-A/UV-B 40 J/cm^2; determined after 1 day and 2 days; read-out: Erythema inhibition rate. The source says:
Inhibition of erythema formation
The hair of white guinea pigs (8 weeks old, female) hair was removed by shaving, and an ethanol solution containing a test substance (5 wt. %) was applied to the shaved part of each animal. A mixture of UV-A/UV-B (40 J/cm^2, measured at 365 nm using a UV-radiometer UVR-305/365-D, Torex Co.) was irradiated onto the back of each guinea pig using a solar simulator Model 1600 (Solar Light Co.). After 1 day and 2 days of irradiation, the erythema formation was visually determined by the standards of the Japanese Dermatological Association to obtain erythema inhibition ratios.

Assay [4] can be described thus: Quenching rate constant of singlet oxygen (Rose Bengal photosensitization, Stern-Volmer method). In kind it is biochemical. As to conditions: for weakening of the 1,270 nm singlet oxygen emission peak with increasing quencher concentration: 50 μM ethanol solution of Rose Bengal, 490-590 nm irradiation. The text has this: Method for measuring the quenching rate constant of singlet oxygen:
The apparatus used for measuring singlet oxygen included the following parts.
(1) Light source: Xenon lamp (150 W) (Atago Bussan K.K.)
(2) Filters on the excitation side: Water filter (optical path: 50 mm), Color glass filters (HA-15, HA-30, G-533, manufactured by Hoya K.K.)
(3) Sample: Square quartz cell (2×10×50 mm)
(4) Filters on the detection side: Color glass filter (IR-85, manufactured by Hoya K.K.), Interference filter (Nippon Shinku-Kogaku K.K.)
(5) Spectrometer and detector: Spectrometer (HR-320, Jovin Yvon Co.), Germanium (Ge) detector (EO-817L, a type using liquid nitrogen as a coolant, North coast Scientic Corporation)
(6) Amplifier: Light chopper (5584, NF Co.), Frequency filter (E-3201B, NF Co.), Super low noise amplifier (SA-200F3, NF Co.), Digital storage oscilloscope (2431L, SONY Tektronix Co.)
(7) Recording section: Personal computer (PC-9801 BA, NEC Corporation), GP-IB interface
(8) Oxygen concentration control unit: High-pressure oxygen cylinder
Using this apparatus, light was irradiated onto a system which is known to produce singlet oxygen through photochemical sensitization. The wavelength of the light was within an appropriate absorption range of the photosensitizer employed. weak emission in the near infrared region, which is specific to singlet oxygen, was measured for its intensity I. Subsequently, the emission obtained when a test substance was added to the same system was measured. From the decrease in emission intensity I, the quenching rate constant of singlet oxygen of the test substance could be measured in accordance with the Stern-Volmer method. However, since some substances react with the photochemical sensitization system to cause errors in the measurements, the method described by R. H. Young et al., Photochem. Photobiol., vol. 17, p. 233 (1973) was applied to correct this contribution quenching.
A 50 μM ethanol solution of Rose Bengal in a 400 μl square quartz cell was used as a test substance.
First, the light within 490-590 nm, which is appropriate for the maximum absorption wavelength of Rose Bengal, was irradiated onto the cell containing the test substance.
Similarly, another system was subjected to measurement in which a typical singlet oxygen quencher, β-carotene, sodium azide,or 1,4-diazabicyclo[2.2.2]octane, had been added.
Measurement of the quenching rate constant of singlet oxygen: An ethanol solution of each of compounds obtained in the above-described Synthesis Examples and N-phenyldiethanolamine (compound (36)), with Rose Bengal, as a conventional photosensitizer, was used for the measurement of the quenching rate constants of singlet oxygen.
First, emission intensity I of a mixture solution containing 50 μM of Rose Bengal and the above compounds were measured under saturated air conditions. The ratio IOair /Iair was calculated, wherein Iair represents the emission intensity measured for a solution with a test substance at a concentration of Cq (Iair), and Oair represents the emission intensity measured for a solution without test substance. Next, under saturated oxygen conditions, emission intensity was measured for a solution with a test substance at the same concentration Cq (I302). Using these emission intensities, the correction term Fair was obtained in accordance with the following equation.
Interference attributed to the test substance with respect to the photosensitization reaction system was corrected by multiplying IOair /Iair by Fair.
Using the following equation:
(IOair /Iair)'=1+kq ·.tau.·Cq

Assay [5] deals with dopachrome formation from dopa. Briefly: Inhibition of immediate pigment darkening (dopachrome formation from dopa, porphyrin + UV). In kind it is biochemical. To be noted: 0.5 wt. % in ethanol; dopa 1 mM, porphyrin 5 mM; UV-A/UV-B 3 J/cm^2; absorption at 475 nm. How it is done: Inhibition of immediate pigment darkening
An ethanol solution containing a test substance (0.5 wt. %) was added to a mixture of dopa (1 mM) and porphyrin (5 mM). A mixture of UV-A/UV-B (3 J/cm^2, measured at 365 nm) was irradiated onto the resultant mixture using a solar simulator. The amount of dopachrome formed by irradiation was determined by measuring absorption at 475 nm.

Assay [6] relates to E. coli vector pUC119 DNA. It counts as biochemical. To be noted: 0.01 wt. % in ethanol; 100 mM porphyrin; UV-A/UV-B 3 J/cm^2; agarose gel electrophoresis. The protocol: To a mixture of […] E. coli vector pUC119 DNA and 100 mM porphyrin, an ethanol solution containing a test substance (0.01 wt. %) was added. A mixture of UV-A/UV-B (3 J/cm^2, measured at 365 nm) was irradiated onto the resultant DNA mixture using a solar simulator. A 2.5-fold amount of ethanol and a 0.1-fold amount of 5M sodium acetate were added and the DNA was precipitated. The DNA pellet was dissolved in a TE buffer, and analyzed through agarose gel electrophoresis. Inhibition of DNA single strand breaks formation was measured.

The subject of assay [7] is cultured human fibroblasts. Put plainly: Inhibition of lipid peroxide formation in cultured human fibroblasts (TBA method). It counts as cell-based. As to conditions: 0.01 wt. % in ethanol, 100 mM porphyrin; for inhibition at 0.01 wt%: Homo sapiens, Fibroblast, light or radiation study, UV-A/UV-B 1 J/cm^2, read-out: Inhibition ratio regarding lipid peroxide formation. The protocol: Inhibition of lipid peroxide formation
Cultured human fibroblasts were combined with 100 mM porphyrin and a test substance (0.01 wt. %, in ethanol). A mixture of UV-A/UV-B rays (1 J/cm^2, measurements performed at 365 nm) was irradiated onto the resultant cell culture using a solar simulator. The fibroblasts were collected after the trypsin treatment, then extracted hydrophobic substances using acetone. The extracted substances were dried under nitrogen to prepare cellular lipid samples. A TBA method was used to measure lipid peroxides in cells and inhibition ratio by a test substance.

Assay [8] has as its system skin of ICR/HR mice. Briefly: Inhibition of wrinkle formation in the skin of mice (UV-B, 16 weeks). In kind it is in vivo, ICR/HR mouse. To be noted: 1 wt. % in ethanol, 1 MED UV-B five times per week over sixteen weeks; for inhibition in vivo at 1 %: Mus musculus, topical, 2688 h. The text has this: Inhibition of wrinkle formation in the skin of mice
To the back of each ICR/HR mouse (female, 6 weeks old), an ethanol solution containing a test substance (1 wt. %) was applied. One (1) MED of UV-B was irradiated thereto using a health lamp SL20-SLE (Toshiba). Irradiation was repeated five times per week over sixteen weeks. Wrinkle formation was visually scored using the following five rankings.
1: Mild and questionable wrinkles are observed
2: Mild but clear and definite wrinkles are observed
3: Moderate wrinkles are observed
4: Severe wrinkles are observed
Using the above rankings, wrinkle formations were scored and the inhibition ratios were determined by the division by the blank score.

Assay [9] concerns collagen. Briefly: Inhibition of protein denaturation (collagen crosslinking, porphyrin + UV). In kind it is biochemical. As to conditions: 0.1 wt. % in ethanol; collagen 0.5 mg/ml, porphyrin 100 mM; UV-A/UV-B 3 J/cm^2; SDS-PAGE. The protocol: Inhibition of protein denaturation
An ethanol solution containing a test substance (0.1 wt. %) was added to a mixture of collagen (0.5 mg/ml) and 2 porphyrin (100 mM). A mixture of UV-A/UV-B (3 J/cm^2, measured at 365 nm) was irradiated onto the resultant mixture using a solar simulator. The irradiated mixture was applied to SDS-PAGE electrophoresis, and collagen crosslinking inhibition ratios were measured.

`Oc1ccc(O)cc1` [Comparative compound (3), Hydroquinone, reference compound] gave a ΔΔL value in assay [1] of 0.7.

As to `COC(=O)C=Cc1ccc(OC)cc1` [Comparative compound (1), Methyl p-methoxycinnamate, reference compound], the inhibition in vivo at 1 % in assay [2] came out at 37%. Also, the inhibition in vivo at 5 % in [3] is 31%. The compound further yielded a ΔΔL value in [1] of 0.9.

Take `CC1=C(/C=C/C(C)=C/C=C/C(C)=C/C=C/C=C(C)/C=C/C=C(C)/C=C/C2=C(C)CCCC2(C)C)C(C)(C)CCC1` [β-carotene, reference compound]: the “weakening of the 1,270 nm singlet oxygen emission peak with increasing quencher concentration” value in assay [4] is listed as “the peak at 1,270 nm weakened”.

`[N-]=[N+]=[N-].[Na+]` [Comparative compound (4), Sodium azide, reference compound]: the “Inhibition ratio regarding immediate blackening” value in assay [5] is listed as 48%. The “Prevention of DNA damage” value in assay [6] is 53%. Also, in assay [4], the “weakening of the 1,270 nm singlet oxygen emission peak with increasing quencher concentration” value is given as “the peak at 1,270 nm weakened”. In addition, the “Inhibition ratio regarding lipid peroxide formation” value in [7] (UV-A/UV-B 1 J/cm^2) is 37. Besides, the “Inhibition of wrinkle formation” value in assay [8] turned out to be 28%. Further, in assay [9], the “Protein denaturation inhibition ratio” value was found to be 45%.

As to `O=C1O[C@H]([C@@H](O)CO)C(O)=C1O` [Comparative compound (5), Ascorbic acid, reference compound], the “Inhibition ratio regarding immediate blackening” value in assay [5] was 42%. Besides, the “Prevention of DNA damage” value in assay [6] turned out to be 21%. The inhibition at 0.01 wt% in [7] was 43%. In assay [8], the inhibition in vivo at 1 % was 11%.

Consider `[Cl][Cd][Cl]` [Comparative compound (2), Cadmium chloride, reference compound], for which, in assay [2], the “Inhibition ratio regarding sunburn cell formation” value was determined as 67%.

For the compound `C1CN2CCN1CC2` [1,4-diazabicyclo[2.2.2]octane, reference compound], the “weakening of the 1,270 nm singlet oxygen emission peak with increasing quencher concentration” value in assay [4] is on record as “the peak at 1,270 nm weakened”.

For the compound `OCCN(CCO)c1ccccc1` [Compound (36), N-phenyldiethanolamine], the inhibition in vivo at 1 % in [2] worked out at 62%. Besides, in assay [5], the “Inhibition ratio regarding immediate blackening” value worked out at 64%. Moreover, the “Prevention of DNA damage” value in assay [6] is 58%. In addition, the “Extinction rate constant of singlet oxygen” value in assay [4] (kq, ethanol solution, 50 μM Rose Bengal, singlet oxygen lifetime taken as 10 μs) was 5.8e+07 M⁻¹ s⁻¹. Moreover, the inhibition at 0.01 wt% in [7] was determined as 46%. For the same compound, the inhibition in vivo at 5 % in [3] is 48%. Also, the ΔΔL value in assay [1] turned out to be 1.2. Moreover, the “Protein denaturation inhibition ratio” value in assay [9] was found to be 69%.

As to `Cc1c(C)c2c(c(C)c1O)CCC(C)(CCCC(C)CCCC(C)CCCC(C)C)O2` (stereo not drawn) [Comparative compound (6), α-Tocopherol, reference compound], in assay [6], the “Prevention of DNA damage” value came out at 34%. The inhibition at 0.01 wt% in [7] is 42%. The inhibition in vivo at 1 % in assay [8] stood at 34%. For the same compound, the “Protein denaturation inhibition ratio” value in assay [9] is listed as 30%.
